Columns and labels:
Format in all cases: in vivo
rhinarium = test: Case: French Bulldog with dry, rough and chapped rhinarium; settings: past treatment history of the same dog
From the text: In this breed of dogs the rhinarium is typically black, but for this individual the black colour of the rhinarium had faded and was grey. […] Topical treatment with oil or ointments provided temporary smoothing effect and a change in colour. […] The rhinarium was no longer rough and chapped, but it was supple and had obtained a characteristic black colour. Subsequently the positive effect on the rhinarium condition was produced with the oil blend in dogs from different breeds.

atopic and pruritic skin = test: Case: Parson Russell terrier with atopic and pruritic skin; settings: past treatment history of the same dog
From the text: An eight-year-old Parson Russell terrier had suffered for a long time from atopic and pruritic skin. The dog had been treated with cortisone and with a variety of different fatty acid supplements containing GLA and fish oil fatty acids (EPA and DHA). […] Constant itching tired the dog and it became phlegmatic. The dog was put on daily dosing of the nutritional oil blend as prepared in example 1 and a clear change in the dogs skin condition and behaviour occurred in a matter of weeks. The rashes and itching was reduced by 95%.

[1] = tested on: symmetrical lupoid onychodystrophy (SLO); test: Case: schapendoes dog with symmetrical lupoid onychodystrophy (SLO); settings: initial treatment before supplementation
Procedure: A four year old, female schapendoes dog was diagnosed with symmetrical lupoid onychodystrophy (SLO). […] Supplementation with the nutritional oil blend as prepared in example 1 at 4 ml/10 kg body weight was started immediately after the secondary infections had cleared.

skin and claws = test: Case: Bullterrier with skin problems and splitting and breaking claws; settings: past treatment history of the same dog
From the text: A three year old, female Bullterrier Dog had suffered from various skin problems since it was a puppy. The skin problems were characterized by red spots in the stomach and hairless spots in the head and in the hind limbs. In addition to the skin problems the dog suffered from splitting and breaking claws. The claws kept constantly breaking and by the age of three the claws had never grown long enough to be clipped. […] The skin was cleared from the red spots and the hairless areas started to grow hair. The positive effects on the skin health remained over several months as the supplementation was continued. […] Three months after the supplementation with the oil blend had begun, the dog's claws needed to be clipped. This was the first time in this dog's life.

vitamin A
appearance of the rhinarium with earlier nutritional supplements (rhinarium): without any appreciable effect

C[C@]12CCC(=O)C=C1CC[C@@H]1[C@@H]2C(=O)C[C@@]2(C)[C@H]1CC[C@]2(O)C(=O)CO [cortisone]
effect of earlier treatments on atopic and pruritic skin (atopic and pruritic skin): provided help only for some weeks

CC1=C(C(=O)O)N2C(=O)[C@@H](NC(=O)[C@H](N)c3ccccc3)[C@H]2SC1 [cephalexin]
secondary bacterial infections in affected claws [1]: total resolution of the bacterial infection

O=C(O)CCCC[C@@H]1SC[C@@H]2NC(=O)N[C@@H]21 [biotin]
claws with earlier treatment (skin and claws): without any appreciable improvement
appearance of the rhinarium with earlier nutritional supplements (rhinarium): without any appreciable effect
